Results: paper PMC4578769, “Development of a Fluorescence-based Trypanosoma cruzi CYP51 Inhibition Assay for Effective Compound Triaging in Drug Discovery Programmes for Chagas Disease” (PLoS Neglected Tropical Diseases, 2015)
Like-named read-outs stand apart in the source and are kept apart here.

Columns and labels:
[1] = molecular target: T1, T. cruzi CYP51 (Tulahuen strain) (Trypanosoma cruzi, UniProt Q7Z1V1); experiment: biochemical; assay type: biochemical; details: for inhibition of T. cruzi CYP51 (in words): known CYP450 inhibitors
T1 construct: ompA leader (N); host or cells: E. coli JM109 (membrane fraction, bactosomes)
T1 sequence (Q7Z1V1 whole entry): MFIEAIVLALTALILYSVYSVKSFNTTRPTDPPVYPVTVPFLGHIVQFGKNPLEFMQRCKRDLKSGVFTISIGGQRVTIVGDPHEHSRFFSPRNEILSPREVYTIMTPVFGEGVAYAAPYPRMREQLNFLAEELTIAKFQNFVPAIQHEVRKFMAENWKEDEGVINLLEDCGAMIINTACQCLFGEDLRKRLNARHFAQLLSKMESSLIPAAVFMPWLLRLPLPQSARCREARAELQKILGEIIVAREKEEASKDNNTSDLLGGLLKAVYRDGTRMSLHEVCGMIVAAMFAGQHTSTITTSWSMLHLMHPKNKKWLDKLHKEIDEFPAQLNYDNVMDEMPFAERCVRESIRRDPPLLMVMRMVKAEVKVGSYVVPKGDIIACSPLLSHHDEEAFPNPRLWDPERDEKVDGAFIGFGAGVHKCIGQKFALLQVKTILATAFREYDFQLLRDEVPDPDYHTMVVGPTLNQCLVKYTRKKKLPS
Experimental: E. coli membrane fractions containing the T. cruzi CYP51 (Tulahuen strain) (Bactosomes) were provided by Cypex Ltd.
For each concentration of test compound the rate of fluorescence units per minute was calculated as a percentage of the average rate of the solvent only control wells.
The percentage of solvent control values was then plotted against the concentration range. Using the following 4 parameter fit equation, an IC50 value can be determined.
y=Range/1+(x/IC50)^s+Background
With kinetic parameters established, a microtitre-based assay to measure inhibition of recombinantly expressed T. cruzi CYP51 by test compounds was then implemented. […] Incubations containing 37 pmoles/mL of T. cruzi CYP51 in bactosomes, 100 μM BOMCC, 10, 3.3, 1.0, 0.33, 0.1, 0.033 or 0.01 μM test compound (2% v/v solvent) in 50 mM potassium phosphate buffer (pH 7.4), were pre-incubated at 37°C for 5 minutes. Upon addition of NADPH regenerating system (7.8 mg [[…]] glucose-6-phosphate, 1.7 mg [[…]] NADP, 6 units/mL glucose-6-phosphate dehydrogenase in 2% w/v sodium bicarbonate buffer) production of fluorescent metabolite CHC was measured (Exc 410 nm, Em 460 nm) at 1 minute intervals over a 10 minute period. Rates of metabolite production per minute were compared to uninhibited controls and plotted against test compound concentration to obtain an IC50.

T. cruzi = details: cited from earlier work; for re-emergence of parasitaemia once dosing has been completed: clinical trial, patients

| SMILES | IC50 [1] [µM] | inhibition of T. cruzi CYP51 (in words) [1] | further results |
| --- | --- | --- | --- |
| C=C[C@H]1C[N@@]2CC[C@H]1C[C@@H]2[C@@H](O)c1ccnc2ccc(OC)cc12 [Quinidine] | > 8 | did not appear to inhibit |  |
| CCC(C)n1ncn(-c2ccc(N3CCN(c4ccc(OCC5COC(Cn6cncn6)(c6ccc(Cl)cc6Cl)O5)cc4)CC3)cc2)c1=O (centres unmarked) [Itraconazole] |  |  | curative activity in humans with chronic Chagas disease (T. cruzi): not demonstrated significant curative activity |
| CC(=O)N1CCN(c2ccc(OCC3COC(Cn4ccnc4)(c4ccc(Cl)cc4Cl)O3)cc2)CC1 (centres unmarked) [Ketoconazole] |  |  | curative activity in humans with chronic Chagas disease (T. cruzi): not demonstrated significant curative activity |
| Cc1nc2c([nH]1)c(=O)n(C)c(=O)n2Cc1ccco1 [Furafylline] | > 8 | did not appear to inhibit |  |
| Nc1ccc(S(=O)(=O)Nc2ccnn2-c2ccccc2)cc1 [Sulphaphenazole] |  | did not appear to inhibit | IC50 ([1]; read-out: IC50 (μM), n = 3, 37 pmoles/mL T. cruzi CYP51 in bactosomes, 100 μM BOMCC, pH 7.4, 37°C, enzyme concentration defines minimum IC50 of approximately 0.02 μM): > 8 µM |
| Clc1ccccc1CN1CCc2sccc2C1 [Ticlopidine] | > 8 | did not appear to inhibit |  |
| CC[C@@H]([C@H](C)O)n1ncn(-c2ccc(N3CCN(c4ccc(OC[C@@H]5CO[C@@](Cn6cncn6)(c6ccc(F)cc6F)C5)cc4)CC3)cc2)c1=O [Posaconazole] |  |  | re-emergence of parasitaemia once dosing has been completed (T. cruzi): re-emergence of parasitaemia in two thirds of patients |
| C[C@@H](c1nc(-c2ccc(C#N)cc2)cs1)[C@](O)(Cn1cncn1)c1ccc(F)cc1F [ravuconazole] |  |  | re-emergence of parasitaemia once dosing has been completed (T. cruzi): re-emergence of parasitaemia in two thirds of patients |
| Cn1cc[nH]c1=S [Methimazole] | > 8 |  |  |
| Clc1ccc(COC(Cn2ccnc2)c2ccc(Cl)cc2Cl)c(Cl)c1 (centres unmarked) [Miconazole] | 0.057 |  |  |
